Experimental data: PubChem BioAssay AID248 (DTP/NCI, 2004)
“And” between values parts separate entries of the source, which are not always exact repeats. Equal entries are not always repeated. Toxic doses and inconclusive results are not listed.

System: L1210 leukemia ip in BDF1 mice, survival T/C
Test: NCI In Vivo Anticancer Drug Screen. Data for tumor model L1210 Leukemia (intraperitoneal) in B6D2F1 (BDF1) mice
Conditions: endpoint: mean survival time, higher = longer survival
How it was run: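 Transplantable tumor model; survival measured in treated vs vehicle control mice. Value = treated/control.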

[1] = dose: 100.0 mg/kg/injection, schedule: Q01DX009 (ip), vehicle: saline with Tween-80
[2] = dose: 200.0 mg/kg/injection, schedule: Q01DX009 (ip), vehicle: saline with Tween-80
[3] = dose: 100.0 mg/kg/injection, schedule: Q01DX001 (ip), vehicle: saline
[4] = dose: 200.0 mg/kg/injection, schedule: Q01DX001 (ip), vehicle: saline
[5] = dose: 400.0 mg/kg/injection, schedule: Q01DX001 (ip), vehicle: saline
[6] = dose: 100.0 mg/kg/injection, schedule: Q01DX009 (ip), vehicle: Klucel (hydroxypropylcellulose) (HPC)
[7] = dose: 100.0 mg/kg/injection, schedule: Q04DX003 (ip), vehicle: Klucel (hydroxypropylcellulose) (HPC)
[8] = dose: 200.0 mg/kg/injection, schedule: Q01DX009 (ip), vehicle: Klucel (hydroxypropylcellulose) (HPC)
[9] = dose: 200.0 mg/kg/injection, schedule: Q04DX003 (ip), vehicle: Klucel (hydroxypropylcellulose) (HPC)
[10] = dose: 400.0 mg/kg/injection, schedule: Q01DX009 (ip), vehicle: Klucel (hydroxypropylcellulose) (HPC)
[11] = dose: 400.0 mg/kg/injection, schedule: Q04DX003 (ip), vehicle: Klucel (hydroxypropylcellulose) (HPC)
[12] = dose: 100.0 mg/kg/injection, schedule: Q04DX003 (ip), vehicle: saline with Tween-80
[13] = dose: 50.0 mg/kg/injection, schedule: Q01DX009 (ip), vehicle: saline with Tween-80

Cc1c(C)c(NC(=O)/C=C/C(=O)O)c(C)c(C)c1NC(=O)/C=C\C(=O)O
T/C [1]: 104 % of control | T/C [2]: 96 % of control | T/C (dose: 400.0 mg/kg/injection, schedule: Q01DX009 (ip), vehicle: saline with Tween-80): 102 % of control

Cc1cc(/C=C2\C=Cc3ccccc32)ccc1N(C)C
T/C [3]: 94 % of control | T/C [4]: 93 % of control | T/C [5]: 98 % of control

COS(=O)(=O)c1ccc([N+](=O)[O-])cc1[N+](=O)[O-]
T/C [3]: 100 % of control | T/C [4]: 94 % of control | T/C [5]: 91 % of control

CC(=O)CC(=O)NC1CCCC1
T/C [6]: 103 % of control | T/C [7]: 100 % of control | T/C [8]: 100 % of control | T/C [9]: 100 % of control | T/C [10]: 100 % of control | T/C [11]: 100 % of control

O=[N+]([O-])c1ccc([As](=O)(O)c2ccc([N+](=O)[O-])cc2)cc1
T/C (dose: 75.0 mg/kg/injection, schedule: Q01DX001 (ip), vehicle: saline): 95 % of control | T/C (dose: 150.0 mg/kg/injection, schedule: Q01DX001 (ip), vehicle: saline): 100 % of control

C/C(=N/N(C)C)c1ccccn1
T/C [1]: 104 % of control | T/C [12]: 91 % of control | T/C [2]: 95 % of control | T/C (dose: 200.0 mg/kg/injection, schedule: Q04DX003 (ip), vehicle: saline with Tween-80): 95 % of control | T/C (dose: 400.0 mg/kg/injection, schedule: Q04DX003 (ip), vehicle: saline with Tween-80): 106 % of control

CCC(Cl)COP(=O)(CC(Cl)CC)OC(C)P(=O)(OCC(Cl)CC)OCC(Cl)CC (stereo unspecified)
T/C (dose: 100.0 mg/kg/injection, schedule: Q01DX001 (ip), vehicle: Klucel (hydroxypropylcellulose) (HPC)): 101 % of control | T/C (dose: 200.0 mg/kg/injection, schedule: Q01DX001 (ip), vehicle: Klucel (hydroxypropylcellulose) (HPC)): 121 % of control | T/C (dose: 400.0 mg/kg/injection, schedule: Q01DX001 (ip), vehicle: Klucel (hydroxypropylcellulose) (HPC)): 97 % of control

OCc1cc(-c2ccc(Cl)cc2)nc2c(C(F)(F)F)cccc12
T/C [6]: 108 % of control | T/C [7]: 102 % of control | T/C [8]: 111 % of control | T/C [9]: 104 % of control | T/C [10]: 109 % of control | T/C [11]: 102 % of control

Cc1ccc2cccnc2c1N (tested in a mixture with another compound)
T/C (dose: 1.56 mg/kg/injection, schedule: Q01DX009 (ip), vehicle: DMSO): 101 % of control | T/C (dose: 3.12 mg/kg/injection, schedule: Q01DX009 (ip), vehicle: DMSO): 97 % of control | T/C (dose: 6.25 mg/kg/injection, schedule: Q01DX009 (ip), vehicle: DMSO): 95 % of control and 97 % of control | T/C (dose: 12.5 mg/kg/injection, schedule: Q01DX009 (ip), vehicle: DMSO): 100 % of control | T/C (dose: 25.0 mg/kg/injection, schedule: Q01DX009 (ip), vehicle: DMSO): 94 % of control and 88 % of control | T/C (dose: 25.0 mg/kg/injection, schedule: Q04DX003 (ip), vehicle: DMSO): 107 % of control | T/C (dose: 50.0 mg/kg/injection, schedule: Q04DX003 (ip), vehicle: DMSO): 86 % of control | T/C (dose: 100.0 mg/kg/injection, schedule: Q04DX003 (ip), vehicle: DMSO): 98 % of control

Cc1ccc(CNc2cc(C)ccn2)cc1
T/C [13]: 96 % of control | T/C [1]: 101 % of control | T/C [2]: 101 % of control

CCOC1(CC)CN(Cc2ccccc2)CCO1 (stereo unspecified)
T/C [6]: 103 % of control | T/C [8]: 93 % of control | T/C [10]: 98 % of control

COc1cccc2c(=O)c(COC(C)=O)c(C)[nH]c12
T/C (dose: 12.5 mg/kg/injection, schedule: Q01DX009 (ip), vehicle: saline with Tween-80): 100 % of control | T/C (dose: 25.0 mg/kg/injection, schedule: Q01DX009 (ip), vehicle: saline with Tween-80): 100 % of control | T/C [13]: 98 % of control | T/C [1]: 106 % of control

O=C(Nc1cccc2ccccc12)Oc1ccc(C2CCCCC2)cc1
T/C (dose: 100.0 mg/kg/injection, schedule: Q01DX009 (ip), vehicle: carboxymethylcellulose (CMC)): 97 % of control and 90 % of control | T/C (dose: 100.0 mg/kg/injection, schedule: Q04DX002 (ip), vehicle: Klucel (hydroxypropylcellulose) (HPC)): 89 % of control | T/C (dose: 100.0 mg/kg/injection, schedule: Q04DX002 (ip), vehicle: carboxymethylcellulose (CMC)): 100 % of control and 101 % of control | T/C (dose: 100.0 mg/kg/injection, schedule: Q04DX003 (ip), vehicle: carboxymethylcellulose (CMC)): 101 % of control | T/C (dose: 200.0 mg/kg/injection, schedule: Q01DX009 (ip), vehicle: carboxymethylcellulose (CMC)): 87 % of control and 92 % of control | T/C (dose: 200.0 mg/kg/injection, schedule: Q04DX002 (ip), vehicle: Klucel (hydroxypropylcellulose) (HPC)): 96 % of control | T/C (dose: 200.0 mg/kg/injection, schedule: Q04DX002 (ip), vehicle: carboxymethylcellulose (CMC)): 101 % of control and 90 % of control | T/C (dose: 200.0 mg/kg/injection, schedule: Q04DX003 (ip), vehicle: carboxymethylcellulose (CMC)): 100 % of control | T/C (dose: 400.0 mg/kg/injection, schedule: Q01DX009 (ip), vehicle: carboxymethylcellulose (CMC)): 97 % of control and 90 % of control | T/C (dose: 400.0 mg/kg/injection, schedule: Q04DX002 (ip), vehicle: Klucel (hydroxypropylcellulose) (HPC)): 101 % of control | T/C (dose: 400.0 mg/kg/injection, schedule: Q04DX002 (ip), vehicle: carboxymethylcellulose (CMC)): 95 % of control and 90 % of control | T/C (dose: 400.0 mg/kg/injection, schedule: Q04DX003 (ip), vehicle: carboxymethylcellulose (CMC)): 92 % of control

Nc1nc(CCCCc2ccc(NC(=O)CBr)cc2)c(CCCCc2ccccc2)c(=O)[nH]1
T/C (dose: 6.25 mg/kg/injection, schedule: Q04DX003 (ip), vehicle: saline with Tween-80): 96 % of control | T/C (dose: 12.5 mg/kg/injection, schedule: Q04DX003 (ip), vehicle: saline with Tween-80): 105 % of control | T/C (dose: 25.0 mg/kg/injection, schedule: Q04DX003 (ip), vehicle: saline with Tween-80): 102 % of control and 110 % of control | T/C (dose: 50.0 mg/kg/injection, schedule: Q01DX001 (ip), vehicle: saline): 108 % of control | T/C [12]: 91 % of control

NC(Cc1cc([N+](=O)[O-])ccc1CN(CCCl)CCCl)C(=O)O (stereo unspecified)
T/C (dose: 3.6 mg/kg/injection, schedule: Q04DX003 (ip), vehicle: saline): 161 % of control | T/C (dose: 6.0 mg/kg/injection, schedule: Q01DX001 (ip), vehicle: saline): 198 % of control | T/C (dose: 6.0 mg/kg/injection, schedule: Q04DX003 (ip), vehicle: saline): 158 % of control and 315 % of control | T/C (dose: 10.0 mg/kg/injection, schedule: Q01DX001 (ip), vehicle: saline): 173 % of control and 248 % of control | T/C (dose: 10.0 mg/kg/injection, schedule: Q04DX003 (ip), vehicle: saline): 163 % of control and 352 % of control | T/C (dose: 16.7 mg/kg/injection, schedule: Q01DX001 (ip), vehicle: saline): 302 % of control and 309 % of control | T/C (dose: 16.7 mg/kg/injection, schedule: Q04DX003 (ip), vehicle: saline): 151 % of control

CCCCCCCCCCCCNC(=O)C[n+]1cccc(C(N)=O)c1
T/C (dose: 100.0 mg/kg/injection, schedule: Q04DX003 (ip), vehicle: saline): 96 % of control

O=C1CCCc2ccc(Cl)cc21
T/C (dose: 100.0 mg/kg/injection, schedule: Q01DX009 (ip), vehicle: saline): 96 % of control | T/C (dose: 200.0 mg/kg/injection, schedule: Q01DX009 (ip), vehicle: saline): 97 % of control | T/C (dose: 400.0 mg/kg/injection, schedule: Q01DX009 (ip), vehicle: saline): 94 % of control

CC1(C)N=C(N)N=C(N)N1c1ccccc1I
T/C (dose: 12.5 mg/kg/injection, schedule: Q01DX009 (ip), vehicle: Klucel (hydroxypropylcellulose) (HPC)): 100 % of control | T/C (dose: 25.0 mg/kg/injection, schedule: Q01DX009 (ip), vehicle: Klucel (hydroxypropylcellulose) (HPC)): 110 % of control | T/C (dose: 50.0 mg/kg/injection, schedule: Q01DX009 (ip), vehicle: Klucel (hydroxypropylcellulose) (HPC)): 97 % of control

CC1(C)C/C(=C/c2ccc([N+](=O)[O-])cc2[N+](=O)[O-])C(=O)O1
T/C (dose: 50.0 mg/kg/injection, schedule: Q01DX001 (ip), vehicle: carboxymethylcellulose (CMC)): 100 % of control | T/C (dose: 100.0 mg/kg/injection, schedule: Q01DX001 (ip), vehicle: carboxymethylcellulose (CMC)): 94 % of control | T/C (dose: 200.0 mg/kg/injection, schedule: Q01DX001 (ip), vehicle: carboxymethylcellulose (CMC)): 94 % of control | T/C (dose: 400.0 mg/kg/injection, schedule: Q01DX001 (ip), vehicle: carboxymethylcellulose (CMC)): 100 % of control

Cc1ccc(S(=O)(=O)NC(=O)C(C)Br)cc1 (stereo unspecified)
T/C (dose: 150.0 mg/kg/injection, schedule: Q01DX001 (ip), vehicle: steriod suspending solution): 95 % of control | T/C (dose: 300.0 mg/kg/injection, schedule: Q01DX001 (ip), vehicle: steriod suspending solution): 95 % of control
